Data from patent publication US20100311800A1, “ANGIOTENSIN II RECEPTOR ANTAGONISTS” (priority 2008, published 2010).

Experiments:
[1] = tested on: Reactive Nitrogen Species (RNS); assay: Assay for Reactive Nitrogen Species (RNS) (DAN assay); assay type: in vivo, rat; set-up: RNS levels: unit not given here; conditions: for RNS levels: EDTA-treated rat plasma
Text: RNS were detected as S-nitrosothiols (RNSOs) in EDTA-treated rat plasma using an HPLC fluorescent assay based on the method of Kostka and Park (Methods Enzymol. 1999, 301, 227-235). The method is based on the detection of fluorescent 2,3-naphthotriazole (NAT) formed in the reaction between acidified 2,3-diaminonaphthalene (DAN) and the nitrosonium moiety of RSNOs released by HgCl2-mediated breakdown of the S—NO bond. The reaction mixture was chromatographed by reversed phase HPLC, and the fluorescent signal of the resolved NAT peak was quantified.
Plasma (20 μL) was first diluted 1:1 in H2O (20 μL) in a black polypropylene untreated microtiter plate. DAN reagent (100 μL per well, 100 μM DAN in 0.1 N HCl, 4 mM HgCl2) was added, and the plate was immediately sealed with an opaque plate mat, vortexed, and incubated in the dark for 10 min. Plates were centrifuged (2000×g, 5 min) and chilled to 4° C. before HPLC analysis. HPLC was carried out on an Agilent 1200 system using a chilled autosampler (4° C.). Samples were chromatographed on a C8 column (Zorbax Eclipse XDB-C8, 4.6×150 mm, 5 μm) with isocratic elution using a mobile phase of 67% MeOH, 0.1% NH4OAc and a flow rate of 2 mL/min. NAT fluorescence was monitored at 450 nm using an excitation wavelength of 360 nm. Calibration curves were prepared using NaNO2 in control plasma. Typical range of quantitation was 0.1 μM to 30 μM NO2.

[2] = tested on: conscious spontaneously hypertensive rats (SHRs); assay: Assay for antihypertensive activity (in vivo); set-up: species or system rat; conditions: for BP lowering compared to Compound A: SHR, same dose (10 mg/kg) or inferior dose (3 mg/kg)
Method: The ability of the compounds of the invention to decrease blood pressure was evaluated in conscious spontaneously hypertensive rats (SHRs). SHRs (250-300 g) received a single oral dose of tested compounds. Systolic blood pressure (SBP) and heart rate were monitored by telemetry for 24 hours after dosing. SBP was evaluated before (baseline) and at different time points (i.e. 2-6, 12, 21-hours) following treatment by oral administration of the compounds. The data were processed both as the absolute value or as a delta between the absolute value and its own baseline.
The Dataquest IV telemetry system (Data Sciences International) was used for measurement of systolic pressure, diastolic pressure, mean arterial pressure, heart rate, and motor activity. The monitoring system consists of a transmitter (radio frequency transducer model TA11PA), receiver panel, consolidation matrix, and personal computer with accompanying software. Before the device was implanted, calibrations were verified to be accurate within ±3 mmHg. Rats were anesthetized with ketamine/xylazine/acepromazine, and the flexible catheter of the transmitter was surgically secured in the abdominal aorta just below the renal arteries. The transmitter was sutured subcutaneously. Rats were housed in individual cages after the operation. Each cage was placed over the receiver panel that was connected to the personal computer for data acquisition. The rats were unrestrained and free to move within their cages. Hemodynamic data were sampled every 2 minutes for 10 seconds.

[3] = tested on: isolated rabbit thoracic aorta preparations; assay: Assay on vascular tone (vessel relaxation assay); assay type: cell-based; conditions: Oryctolagus cuniculus; aortic rings precontracted with noradrenaline 1 μM, functional endothelium
Method: The ability of the compounds of the invention to induce vasorelaxation in comparison to native angiotensin II receptor blockers (ARBs) was tested in vitro in isolated rabbit thoracic aorta preparations (Wanstall J. C. et al., Br. J. Pharmacol., 134:463-472, 2001). Male New Zealand rabbits were anaesthetized with thiopental-Na (50 mg/kg, iv), sacrificed by exsanguinations and then the thorax was opened and the aorta dissected. Aortic ring preparations (4 mm in length) were set up in physiological salt solution (PSS) at 37° C. in small organ chambers (5 ml). The composition of PSS was (mM): NaCl 130, NaHCO3 14.9, KH2PO4 1.2, MgSO4 1.2, HEPES 10, CaCl2, ascorbic acid […] and glucose 1.1 (95% O2/5% CO2; pH 7.4). Each ring was mounted under 2 g passive tension. Isometric tension was recorded with a Grass transducer (Grass FT03) attached to a BIOPAC MP150 System. Preparations were allowed to equilibrate for 1 h, and then contracted submaximally with noradrenaline (NA, 1 μM) and, when the contraction was stable, acetylcholine (ACh, 10 μM) was added. A relaxant response to ACh indicated the presence of a functional endothelium. […] When a stable precontraction was reached, a cumulative concentration-response curve to either of the vasorelaxant agents was obtained in the presence of a functional endothelium. Each arterial ring was exposed to only one combination of inhibitor and vasorelaxant. Moreover, the effect of the soluble guanylyl cyclase inhibitor ODQ (1-H-(1,2,4)-oxadiazol(4,3-a)quinoxalin-1-one) on vasorelaxation elicited by the compounds was examined preincubating the aortic rings with ODQ (10 μM) for 20 min.
Responses to relaxing agents are expressed as a percentage of residual contraction and plotted against concentration of test compound. EC50 values (where EC50 is the concentration producing 50% of the maximum relaxation to the test compound) were interpolated from these plots. During the experimental period, the plateau obtained with NA was stable without significant spontaneous loss of contraction in the aortic rings.
Furthermore, in experiments performed in the presence of ODQ (10 μM), the vasorelaxant responses to tested compounds were inhibited.

[4] = 10 mpk single oral dose, 21-24 h
[5] = 3 mpk single oral dose, 21-24 h

Row | EC50 [3] | Structure (SMILES) | Δ SBP in SHR ([2]; 10 mpk single oral dose, 2-6 h) | Δ SBP in SHR [2, 4] | Δ SBP in SHR ([2]; 10 mpk single oral dose, 12 h) | BP lowering compared to Compound A [2] | also measured
1 |  | CCCCc1nc(Cl)c(C(=O)OCCOCCO[N+](=O)[O-])n1Cc1ccc(-c2ccccc2-c2nn[nH]n2)cc1 [Compound A, reference compound] | −15 mmHg | −8 mmHg | −12 mmHg |  | RNS levels ([1]; time 0 h): 0.4; RNS levels ([1]; time 1 h): 2.8; RNS levels ([1]; time 3 h): 1.4; RNS levels ([1]; time 6 h): 0.9; RNS levels ([1]; time 24 h): 0
2 | 22 µM | CCCCc1nc(Cl)c(C(=O)OC(C)OC(=O)OCCCC[C@@H](C)O[N+](=O)[O-])n1Cc1ccc(-c2ccccc2-c2nnn[nH]2)cc1 (stereo partly drawn) [Example 1, 1-[({[(R)-5-(nitrooxy)hexyl]oxy}carbonyl)oxy]ethyl 2-butyl-4-chloro-1-{[2′-(1H-tetrazol-5-yl)biphenyl-4-yl]methyl}-1H-imidazole-5-carboxylate] |  |  |  |  | 
3 | 31 µM | CCOc1nc2cccc(C(=O)OC(C)(C)OC(=O)OCCCCC(C)O[N+](=O)[O-])c2n1Cc1ccc(-c2ccccc2-c2nnn[nH]2)cc1 (centres unmarked) [Example 2] |  |  |  | extended peak effect and duration of action | Δ SBP in SHR ([2]; 3 mpk single oral dose, 2-6 h): −30 mmHg; Δ SBP in SHR [2, 5]: −36 mmHg; Δ SBP in SHR ([2]; 3 mpk single oral dose, 12 h): −34 mmHg
4 | 39 µM | CCCCc1nc(Cl)c(C(=O)OC(C)OC(=O)OCCCC[C@H](C)O[N+](=O)[O-])n1Cc1ccc(-c2ccccc2-c2nn[nH]n2)cc1 (stereo partly drawn) [Example 3, 1-[({[(5S)-5-(nitrooxy)hexyl]oxy}carbonyl)oxy]ethyl 2-butyl-4-chloro-1-{[2′-(1H-tetrazol-5-yl)biphenyl-4-yl]methyl}-1H-imidazole-5-carboxylate] |  |  |  |  | 
5 | 27 µM | CCCCc1nc(Cl)c(C(=O)OC(C)OC(=O)OCCCCC(C)O[N+](=O)[O-])n1Cc1ccc(-c2ccccc2-c2nn[nH]n2)cc1 (centres unmarked) [Example 4, 1-[({[5-(nitrooxy)hexyl]oxy}carbonyl)oxy]ethyl 2-butyl-4-chloro-1-{[2′-(1H-tetrazol-5-yl)biphenyl-4-yl]methyl}-1H-imidazole-5-carboxylate] | −10 mmHg | −30 mmHg | −30 mmHg | extended peak effect and duration of action | RNS levels ([1]; time 0 h): 0.9; RNS levels ([1]; time 1 h): 6.9; RNS levels ([1]; time 3 h): 6.9; RNS levels ([1]; time 6 h): 2.4; RNS levels ([1]; time 24 h): 1.6; RNS levels compared to Compound A ([1]; rat plasma): improved RNS levels
6 | 22 µM | CCCCc1nc(Cl)c(C(=O)OC(C)OC(=O)OCCC(C)O[N+](=O)[O-])n1Cc1ccc(-c2ccccc2-c2nn[nH]n2)cc1 (centres unmarked) [Example 5, 1-[({[3-(nitrooxy)butyl]oxy}carbonyl)oxy]ethyl 2-butyl-4-chloro-1-{[2′-(1H-tetrazol-5-yl)biphenyl-4-yl]methyl}-1H-imidazole-5-carboxylate] |  |  |  |  | 
7 | 23 µM | CCCCc1nc(Cl)c(C(=O)OC(C)OC(=O)OCC[C@@H](C)O[N+](=O)[O-])n1Cc1ccc(-c2ccccc2-c2nn[nH]n2)cc1 (stereo partly drawn) [Example 6, 1-[({[(3R)-3-(nitrooxy)butyl]oxy}carbonyl)oxy]ethyl 2-butyl-4-chloro-1-{[2′-(1H-tetrazol-5-yl)biphenyl-4-yl]methyl}-1H-imidazole-5-carboxylate] | −16 mmHg | −17 mmHg | −21 mmHg | extended peak effect and duration of action | 
8 | 26 µM | CCCCc1nc(Cl)c(C(=O)OC(C)OC(=O)OCC[C@H](C)O[N+](=O)[O-])n1Cc1ccc(-c2ccccc2-c2nn[nH]n2)cc1 (stereo partly drawn) [Example 7, 1-[({[(3S)-3-(nitrooxy)butyl]oxy}carbonyl)oxy]ethyl 2-butyl-4-chloro-1-{[2′-(1H-tetrazol-5-yl)biphenyl-4-yl]methyl}-1H-imidazole-5-carboxylate] |  |  |  |  | 
9 | 40 µM | CCCCc1nc(Cl)c(C(=O)OC(C)OC(=O)CCCC(C)O[N+](=O)[O-])n1Cc1ccc(-c2ccccc2-c2nn[nH]n2)cc1 (centres unmarked) [Example 8] | −31 mmHg | −28 mmHg | −29 mmHg | extended peak effect and duration of action | 
10 | 43 µM | CCOc1nc2cccc(C(=O)OC(C)OC(=O)CCCC(C)O[N+](=O)[O-])c2n1Cc1ccc(-c2ccccc2-c2nn[nH]n2)cc1 (centres unmarked) [Example 9] |  |  |  | extended peak effect and duration of action | Δ SBP in SHR ([2]; 3 mpk single oral dose, 2-6 h): −43 mmHg; Δ SBP in SHR [2, 5]: −50 mmHg; Δ SBP in SHR ([2]; 3 mpk single oral dose, 12 h): −49 mmHg
11 | 5.3 µM | CCCCc1nc(Cl)c(COC(=O)C23CC4CC(CC(O[N+](=O)[O-])(C4)C2)C3)n1Cc1ccc(-c2ccccc2-c2nnn[nH]2)cc1 [Example 10, (2-butyl-4-chloro-1-{[2′-(1H-tetrazol-5-yl)biphenyl-4-yl]methyl}-1H-imidazol-5-yl)methyl 3-(nitrooxy)adamantane-1-carboxylate] |  |  |  |  | 
